Values of other authors as cited in US6689394B2, “Removal of ectoparasites” (Schering-Plough HealthCare Products, Inc., priority 2001, dated 2004).

System: head lice
Conditions: comparison of published results for topical pesticidal treatments

CC1(C)C(C=C(Cl)Cl)C1C(=O)OCc1cccc(Oc2ccccc2)c1 (stereo not shown) [Permethrin]
evidence of clinical efficacy: sufficient evidence of efficacy
